# Laboratory results published in patent US7875618B2, “Substituted imidazo[1,5-a]quinoxalines useful as inhibitors of phosphodiesterase 10 for the treatment of neurological and other disorders” (Wyeth, priority 2007, dated 2011).
# Tests used:
# PDE10 from pig striatum = PDE10 from pig striatum (Sus scrofa, UniProt A0A287B941); test: Inhibition of PDE10 from pig striatum ([3H]-cAMP SPA, Methods A and B); type: biochemical; details: for IC50: PDE10 pig
# Experimental: Striatum from male Wistar rats (180-200 g), male hybrid pigs (150 kg) and male guinea pigs (CRL (HA), 500 g) respectively were collected and frozen at −70° C. At the day of preparation 0.5 g striatum was homogenised in 10 ml 50 mM Tris/Mg-buffer at 4° C. and centrifuged for one hour at 100000 g. The supernatant is called the cytosolic fraction and was removed and stored on ice. The pellet was resuspended in the same buffer, but containing 1% Triton and incubated for 45 min at 4° C. Both fractions were independently applied onto a 5 ml Hi Trap™ QHP column at the Äkta-FPLC. After washing the columns the bound PDE protein was eluted with an increasing sodium chloride gradient (0 mM-500 mM sodium chloride) in 50 mM Tris/Mg-buffer at 4° C. for the cytosolic fraction and in the presence of 1% Triton for the membrane fraction. […] The fractions with PDE10-activity were pooled and frozen in aliquots until use at −20° C. PDE10 activity was determined in a one step procedure in microtiter plates. […] Nonspecific activity was tested without the enzyme. The reaction was initiated by addition of the substrate solution and was carried out at 37° C. for 30 minutes. Enzymatic activity was stopped by addition of 25 μl YSi-SPA-beads (Amersham-Pharmacia). One hour later the mixture was measured in a liquid scintillation counter for microtiter plates (Microbeta Trilux). To pipette the incubation mixture a robot Biomek (Fa. Beckman) is used. […] For determination of IC50 values the Hill-plot, 2-parameter-model, was used. […] Striatum from male hybrid pigs (150 kg) were collected and frozen at −70° C. At the day of preparation 0.5 g striatum was homogenised in 10 ml 50 mM Tris/Mg-buffer at 4° C. and centrifuged for one hour at 100000 g. The supernatant was removed and the pellet was resuspended in the same buffer, but containing 1% Triton and incubated for 45 min at 4° C. The membrane fraction was applied onto a 5 ml Hi Trap™ QHP column at the Äkta-FPLC. After washing the column the bound PDE protein was eluted with an increasing sodium chloride gradient (0 mM-500 mM sodium chloride) in 50 mM Tris/Mg-buffer at 4° C. in the presence of 1% Triton. […] The fractions with PDE10-activity were pooled and frozen in aliquots until use at −20° C. PDE10 activity was determined in a one step procedure in microtiterplates. […] Nonspecific activity was tested without the enzyme. The reaction was initiated by addition of the substrate solution and was carried out at 37° C. for 30 minutes. Enzymatic activity was stopped by addition of 25 μl YSi-SPA-beads (Amersham-Pharmacia). One hour later the mixture was measured in a liquid scintillation counter for microtiterplates (Microbeta Trilux). To pipette the incubation mixture a robot Biomek (Fa. Beckman) is used. […] For determination of IC50 values the Hill-plot, 2-parameter-model, was used.
# human recombinant PDE10A = target: T1, human recombinant PDE10A (Homo sapiens, UniProt Q9Y233); test: Inhibition of human recombinant PDE10A ([3H]-cAMP SPA, Method B); type: biochemical; details: read-out: PDE10 inhibition IC50 [nM] PDE10A human
# T1 construct: made in house; host or cells: SF21 insect cells (baculovirus)
# T1 sequence (Q9Y233 1-779 isoform Q9Y233-1): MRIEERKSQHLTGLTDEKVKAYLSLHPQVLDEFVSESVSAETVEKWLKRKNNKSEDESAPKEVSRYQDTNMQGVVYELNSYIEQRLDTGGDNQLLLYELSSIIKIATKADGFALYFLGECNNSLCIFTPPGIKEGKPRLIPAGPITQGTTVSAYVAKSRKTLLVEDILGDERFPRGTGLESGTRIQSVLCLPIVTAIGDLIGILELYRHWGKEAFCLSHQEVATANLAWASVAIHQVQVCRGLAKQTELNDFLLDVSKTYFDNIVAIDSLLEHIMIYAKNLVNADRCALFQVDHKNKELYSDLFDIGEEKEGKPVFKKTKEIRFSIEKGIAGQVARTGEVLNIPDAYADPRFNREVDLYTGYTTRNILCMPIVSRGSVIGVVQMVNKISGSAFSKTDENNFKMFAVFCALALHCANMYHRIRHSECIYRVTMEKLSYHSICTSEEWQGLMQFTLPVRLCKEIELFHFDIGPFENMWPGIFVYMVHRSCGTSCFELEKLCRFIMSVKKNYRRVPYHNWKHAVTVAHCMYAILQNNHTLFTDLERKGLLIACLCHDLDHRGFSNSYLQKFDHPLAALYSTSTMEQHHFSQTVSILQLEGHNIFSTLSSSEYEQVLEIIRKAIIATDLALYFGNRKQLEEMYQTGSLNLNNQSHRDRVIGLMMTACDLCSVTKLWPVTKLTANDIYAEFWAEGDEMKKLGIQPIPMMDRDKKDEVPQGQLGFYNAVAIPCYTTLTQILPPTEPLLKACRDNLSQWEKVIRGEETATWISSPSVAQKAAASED
# rats [1] = details: Kostowski et al. 1976; cited from earlier work
# rats [2] = details: Kostowski et al. 1976; cited from earlier work; remark: listed apart in the source
# rats [3] = details: Kostowski et al. 1976; cited from earlier work; remark: listed apart in the source
# PDE10 from rat striatum = target: T2, PDE10 from rat striatum (Rattus norvegicus, UniProt Q9QYJ6); test: Inhibition of PDE10 from rat striatum (Method A); type: biochemical; details: read-out: Km of substrate
# T2 construct: from tissue; host or cells: rat striatum (male Wistar)
# T2 sequence (Q9QYJ6 1-794): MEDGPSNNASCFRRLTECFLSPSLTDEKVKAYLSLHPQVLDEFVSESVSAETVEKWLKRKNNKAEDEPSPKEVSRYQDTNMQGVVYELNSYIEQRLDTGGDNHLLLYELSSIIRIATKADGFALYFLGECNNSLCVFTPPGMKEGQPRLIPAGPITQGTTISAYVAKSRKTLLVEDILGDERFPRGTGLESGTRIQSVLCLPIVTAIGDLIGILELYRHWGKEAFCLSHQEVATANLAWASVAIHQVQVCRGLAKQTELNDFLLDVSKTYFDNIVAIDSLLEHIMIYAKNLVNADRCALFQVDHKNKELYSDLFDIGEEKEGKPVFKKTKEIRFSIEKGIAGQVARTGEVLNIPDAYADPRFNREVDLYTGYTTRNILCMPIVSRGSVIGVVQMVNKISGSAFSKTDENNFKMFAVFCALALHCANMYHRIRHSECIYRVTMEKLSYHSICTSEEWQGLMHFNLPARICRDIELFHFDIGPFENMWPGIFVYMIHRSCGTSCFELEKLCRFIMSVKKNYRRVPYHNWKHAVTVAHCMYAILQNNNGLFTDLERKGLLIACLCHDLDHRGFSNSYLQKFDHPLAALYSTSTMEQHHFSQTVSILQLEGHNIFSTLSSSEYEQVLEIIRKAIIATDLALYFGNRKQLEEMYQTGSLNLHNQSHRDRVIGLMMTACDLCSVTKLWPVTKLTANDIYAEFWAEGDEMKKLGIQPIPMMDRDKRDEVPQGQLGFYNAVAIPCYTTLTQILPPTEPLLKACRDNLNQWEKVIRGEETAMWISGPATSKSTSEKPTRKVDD
# Experimental: Striatum from male Wistar rats (180-200 g), male hybrid pigs (150 kg) and male guinea pigs (CRL (HA), 500 g) respectively were collected and frozen at −70° C. At the day of preparation 0.5 g striatum was homogenised in 10 ml 50 mM Tris/Mg-buffer at 4° C. and centrifuged for one hour at 100000 g. The supernatant is called the cytosolic fraction and was removed and stored on ice. The pellet was resuspended in the same buffer, but containing 1% Triton and incubated for 45 min at 4° C. Both fractions were independently applied onto a 5 ml Hi Trap™ QHP column at the Äkta-FPLC. After washing the columns the bound PDE protein was eluted with an increasing sodium chloride gradient (0 mM-500 mM sodium chloride) in 50 mM Tris/Mg-buffer at 4° C. for the cytosolic fraction and in the presence of 1% Triton for the membrane fraction. […] The fractions with PDE10-activity were pooled and frozen in aliquots until use at −20° C. PDE10 activity was determined in a one step procedure in microtiter plates. […] Nonspecific activity was tested without the enzyme. The reaction was initiated by addition of the substrate solution and was carried out at 37° C. for 30 minutes. Enzymatic activity was stopped by addition of 25 μl YSi-SPA-beads (Amersham-Pharmacia). One hour later the mixture was measured in a liquid scintillation counter for microtiter plates (Microbeta Trilux). […]
# [4] = target: Phosphodiesterase (PDE) 10A (Homo sapiens, UniProt Q9Y233); details: Soderling et al. 1999; read-out: Km of substrate; cited from earlier work
# Chain of Phosphodiesterase (PDE) 10A (Q9Y233 whole entry): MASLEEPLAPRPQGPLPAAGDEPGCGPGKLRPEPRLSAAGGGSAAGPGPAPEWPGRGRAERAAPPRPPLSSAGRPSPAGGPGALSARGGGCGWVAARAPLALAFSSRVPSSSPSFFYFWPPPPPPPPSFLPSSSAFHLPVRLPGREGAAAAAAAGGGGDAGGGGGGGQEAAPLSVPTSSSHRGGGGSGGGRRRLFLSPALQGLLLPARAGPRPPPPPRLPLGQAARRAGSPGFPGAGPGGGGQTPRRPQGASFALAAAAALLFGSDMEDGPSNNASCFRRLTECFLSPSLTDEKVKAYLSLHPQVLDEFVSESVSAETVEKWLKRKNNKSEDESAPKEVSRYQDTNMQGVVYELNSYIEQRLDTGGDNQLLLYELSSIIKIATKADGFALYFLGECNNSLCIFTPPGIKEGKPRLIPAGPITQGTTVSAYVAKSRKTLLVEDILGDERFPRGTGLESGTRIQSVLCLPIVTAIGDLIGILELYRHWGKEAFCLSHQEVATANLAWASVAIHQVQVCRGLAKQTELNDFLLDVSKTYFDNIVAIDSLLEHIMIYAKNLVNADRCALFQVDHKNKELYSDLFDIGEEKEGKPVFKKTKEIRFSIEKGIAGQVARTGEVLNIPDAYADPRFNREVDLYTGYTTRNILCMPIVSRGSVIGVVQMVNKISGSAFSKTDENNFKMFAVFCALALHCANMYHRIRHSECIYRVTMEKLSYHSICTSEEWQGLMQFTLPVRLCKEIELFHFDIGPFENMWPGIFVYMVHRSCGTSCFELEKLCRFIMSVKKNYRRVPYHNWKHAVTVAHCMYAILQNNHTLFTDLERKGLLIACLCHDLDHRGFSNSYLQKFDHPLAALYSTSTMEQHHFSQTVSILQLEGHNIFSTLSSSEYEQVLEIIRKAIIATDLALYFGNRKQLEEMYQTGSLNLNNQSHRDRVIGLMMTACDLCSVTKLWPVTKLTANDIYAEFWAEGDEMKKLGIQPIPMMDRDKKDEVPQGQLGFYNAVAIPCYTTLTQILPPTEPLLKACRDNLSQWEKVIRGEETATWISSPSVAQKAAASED
Compound,IC50 (PDE10 from pig striatum),IC50 (human recombinant PDE10A),melting point,also measured
"COc1cc(OC)c2nc(C)c3c(C)nc(-c4ccccc4C)n3c2c1 [Example 52, 6,8-Dimethoxy-3,4-dimethyl-1-o-tolyl-imidazo[1,5-a]quinoxaline]",≤ 10 nM,≤ 10 nM,168 to 169 °C,
"COc1cc(OC)c2nc(C)c3c(C)nc(-c4ccccc4Cl)n3c2c1 [Example 53, 1-(2-Chloro-phenyl)-6,8-dimethoxy-3,4-dimethyl-imidazo[1,5-a]quinoxaline]",≤ 10 nM,≤ 10 nM,183 to 189 °C,
COc1ccc(Cc2nccc3cc(OC)c(OC)cc23)cc1OC [Papaverine],,,,apomorphine-induced stereotypies (rats [1]): reduces; haloperidol-induced catalepsy (rats [2]): increases; dopamine concentration in rat brain (rats [3]): reducing
Nc1nc2c(ncn2[C@@H]2O[C@@H]3COP(=O)(O)O[C@H]3[C@H]2O)c(=O)[nH]1 [cGMP],,,,"Km (PDE10 from pig striatum; Method A, PDE10 from pig striatum, read-out: Km of substrate): 2.2 µM; Km (PDE10 from rat striatum): 1.8 µM; Km [4]: 3 µM"
